According to PubChem BioAssay (NCI):
Where “and” joins values, the source holds several entries; their conditions need not be identical. Identical values can stand only once.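 Following 48 hours of exposure in 96-well plates, responses at five concentrations were used to interpolate endpoints linearly. Definition used: TGI = concentration required for complete inhibition of growth.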

Experiments:
Assay in all cases: NCI-60 cell line screen, 48 h
786-0 renal = system: 786-0 renal
A498 renal = system: A498 renal
A549 NSCLC = system: A549 NSCLC
ACHN renal = system: ACHN renal
BT-549 breast = system: BT-549 breast
CAKI-1 renal = system: CAKI-1 renal
CCRF-CEM leukemia = system: CCRF-CEM leukemia
COLO 205 colon = system: COLO 205 colon
DLD-1 colon = system: DLD-1 colon
DMS 114 small cell lung = system: DMS 114 small cell lung
DMS 273 small cell lung = system: DMS 273 small cell lung
DU-145 prostate = system: DU-145 prostate
EKVX NSCLC = system: EKVX NSCLC
HCC-2998 colon = system: HCC-2998 colon
HCT-116 colon = system: HCT-116 colon
HCT-15 colon = system: HCT-15 colon
HL-60(TB) leukemia = system: HL-60(TB) leukemia
HOP-18 NSCLC = system: HOP-18 NSCLC
HOP-62 NSCLC = system: HOP-62 NSCLC
HOP-92 NSCLC = system: HOP-92 NSCLC
HS 578T breast = system: HS 578T breast
HT29 colon = system: HT29 colon
IGROV1 ovarian = system: IGROV1 ovarian
K-562 leukemia = system: K-562 leukemia
KM12 colon = system: KM12 colon
KM20L2 colon = system: KM20L2 colon
LOX IMVI melanoma = system: LOX IMVI melanoma
LXFL 529 NSCLC = system: LXFL 529 NSCLC
M14 melanoma = system: M14 melanoma
M19-MEL melanoma = system: M19-MEL melanoma
MALME-3M melanoma = system: MALME-3M melanoma
MCF7 breast = system: MCF7 breast
MDA-MB-231 breast = system: MDA-MB-231 breast
MDA-MB-435 = system: MDA-MB-435
MDA-N = system: MDA-N
MOLT-4 leukemia = system: MOLT-4 leukemia
NCI-H226 lung = system: NCI-H226 lung
NCI-H23 lung = system: NCI-H23 lung
NCI-H460 lung = system: NCI-H460 lung
NCI-H522 lung = system: NCI-H522 lung
NCI/ADR-RES ovarian = system: NCI/ADR-RES ovarian
OVCAR-3 ovarian = system: OVCAR-3 ovarian
OVCAR-4 ovarian = system: OVCAR-4 ovarian
OVCAR-5 ovarian = system: OVCAR-5 ovarian
OVCAR-8 ovarian = system: OVCAR-8 ovarian
PC-3 prostate = system: PC-3 prostate
RPMI-8226 leukemia = system: RPMI-8226 leukemia
RXF 393 renal = system: RXF 393 renal
SF-268 CNS = system: SF-268 CNS
SF-295 CNS = system: SF-295 CNS
SF-539 CNS = system: SF-539 CNS
SK-MEL-2 melanoma = system: SK-MEL-2 melanoma
SK-MEL-28 melanoma = system: SK-MEL-28 melanoma
SK-MEL-5 melanoma = system: SK-MEL-5 melanoma
SK-OV-3 ovarian = system: SK-OV-3 ovarian
SN12C renal = system: SN12C renal
SNB-19 CNS = system: SNB-19 CNS
SNB-75 CNS = system: SNB-75 CNS
SNB-78 CNS = system: SNB-78 CNS
SR leukemia = system: SR leukemia
SW-620 colon = system: SW-620 colon
T-47D breast = system: T-47D breast
TK-10 renal = system: TK-10 renal
U251 CNS = system: U251 CNS
UACC-257 melanoma = system: UACC-257 melanoma
UACC-62 melanoma = system: UACC-62 melanoma
UO-31 renal = system: UO-31 renal
XF 498 CNS = system: XF 498 CNS

What does the source list for `CC(Oc1ccc(Oc2cnc3ccc(Cl)cc3n2)cc1)C(=O)O` (stereo not drawn)?
TGI (786-0 renal): > 100 µM; TGI (A498 renal): > 100 µM; TGI (A549 NSCLC): > 100 µM; TGI (ACHN renal): > 100 µM; TGI (BT-549 breast): > 100 µM; TGI (CAKI-1 renal): > 100 µM; TGI (CCRF-CEM leukemia): > 100 µM; TGI (COLO 205 colon): > 100 µM; TGI (DLD-1 colon): > 100 µM; TGI (DMS 114 small cell lung): > 100 µM; TGI (DMS 273 small cell lung): > 100 µM; TGI (DU-145 prostate): > 100 µM; TGI (EKVX NSCLC): > 100 µM; TGI (HCC-2998 colon): > 100 µM; TGI (HCT-116 colon): > 100 µM; TGI (HCT-15 colon): > 100 µM; TGI (HL-60(TB) leukemia): > 100 µM; TGI (HOP-18 NSCLC): > 100 µM; TGI (HOP-62 NSCLC): > 100 µM; TGI (HOP-92 NSCLC): > 100 µM; TGI (HS 578T breast): > 100 µM; TGI (HT29 colon): > 100 µM; TGI (IGROV1 ovarian): > 100 µM; TGI (K-562 leukemia): > 100 µM; TGI (KM12 colon): > 100 µM; TGI (KM20L2 colon): > 100 µM; TGI (LOX IMVI melanoma): > 100 µM; TGI (LXFL 529 NSCLC): > 100 µM; TGI (M14 melanoma): > 100 µM; TGI (M19-MEL melanoma): > 100 µM; TGI (MALME-3M melanoma): > 100 µM; TGI (MCF7 breast): > 100 µM; TGI (MDA-MB-231 breast): > 100 µM; TGI (MDA-MB-435): > 100 µM; TGI (MDA-N): > 100 µM; TGI (MOLT-4 leukemia): > 100 µM; TGI (NCI-H226 lung): > 100 µM and 33.2 µM; TGI (NCI-H23 lung): > 100 µM; TGI (NCI-H460 lung): > 100 µM; TGI (NCI-H522 lung): 99.4 µM and > 100 µM; TGI (NCI/ADR-RES ovarian): > 100 µM; TGI (OVCAR-3 ovarian): > 100 µM; TGI (OVCAR-4 ovarian): > 100 µM; TGI (OVCAR-5 ovarian): > 100 µM; TGI (OVCAR-8 ovarian): > 100 µM; TGI (PC-3 prostate): > 100 µM; TGI (RPMI-8226 leukemia): > 100 µM; TGI (RXF 393 renal): > 100 µM; TGI (SF-268 CNS): > 100 µM; TGI (SF-295 CNS): > 100 µM; TGI (SF-539 CNS): > 100 µM; TGI (SK-MEL-2 melanoma): > 100 µM; TGI (SK-MEL-28 melanoma): > 100 µM; TGI (SK-MEL-5 melanoma): > 100 µM; TGI (SK-OV-3 ovarian): > 100 µM; TGI (SN12C renal): > 100 µM; TGI (SNB-19 CNS): > 100 µM; TGI (SNB-75 CNS): > 100 µM; TGI (SNB-78 CNS): > 100 µM; TGI (SR leukemia): > 100 µM; TGI (SW-620 colon): > 100 µM; TGI (T-47D breast): > 100 µM; TGI (TK-10 renal): > 100 µM; TGI (U251 CNS): > 100 µM; TGI (UACC-257 melanoma): > 100 µM; TGI (UACC-62 melanoma): > 100 µM; TGI (UO-31 renal): > 100 µM; TGI (XF 498 CNS): > 100 µM
